The record followed here is US8138148B2, “GDNF derived peptides” (Copenhagen University, priority 2005, dated 2012).

One experiment deals with T1, GFRα1 receptor (Homo sapiens, UniProt P56159).
T1 sequence (P56159 25-429): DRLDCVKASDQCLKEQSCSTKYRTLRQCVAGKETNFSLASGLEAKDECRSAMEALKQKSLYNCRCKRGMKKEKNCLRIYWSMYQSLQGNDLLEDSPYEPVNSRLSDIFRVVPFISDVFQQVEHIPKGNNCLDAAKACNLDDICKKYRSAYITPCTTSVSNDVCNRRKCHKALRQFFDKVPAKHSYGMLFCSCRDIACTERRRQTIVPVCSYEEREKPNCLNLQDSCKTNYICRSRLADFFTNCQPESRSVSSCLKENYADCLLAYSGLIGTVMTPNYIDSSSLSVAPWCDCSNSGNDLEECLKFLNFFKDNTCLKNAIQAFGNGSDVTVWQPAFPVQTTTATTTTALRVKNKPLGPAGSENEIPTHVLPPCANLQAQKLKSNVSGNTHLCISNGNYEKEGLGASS
The experiment is described as follows: Surface plasmon resonance (SPR) binding analysis, GFRα1. To be noted: immobilized receptor protein, 25° C., PBS pH 7.4. How it is done:
Analysis of binding was performed employing a BIAcoreX instrument (Biosensor AB, Uppsala, Sweden) at 25° C. using 10 mM pH 7.4 sodium phosphate containing 150 mM NaCl as running buffer (phosphate-buffered saline, PBS). The flow-rate was 5 μl/min. Data were analysed by non-linear curve-fitting using the manufacturer's software. The receptor proteins, e.g. NCAM Ig1-Ig2 and GFR proteins, were immobilized on a sensor chip CM5 using an amine coupling kit (Biosensor AB) as follows: the chip was activated by 20 μl activation solution; the protein was immobilized using 12 μl 20 μg/ml protein in 10 mM sodium phosphate buffer pH 6.0; the chip was blocked by 35 μl blocking solution. Various peptides at the indicated concentrations were injected into the sensor chip. The curve corresponding to the difference between binding to receptor and a blank chip was used for analysis.

The subject of the next experiment is hippocampal neurons. The experiment is described as follows: Neurite outgrowth assay, co-cultures of hippocampal neurons on control fibroblasts or NCAM-expressing fibroblasts. Type of experiment: cell-based, rat. To be noted: 24 hours. On the procedure:
(§1) Two different versions of the neurite outgrowth assay were used in this study, monocultures and co-cultures.
(§2) In monocultures, neurons are grown directly on plastic and the only neuritogenic stimulus is the one presented by the added substance. In co-cultures, neurons are grown on top of a confluent monolayer of fibroblasts expressing NCAM-140 (LBN110) or NCAM-negative control fibroblasts (LVN212). NCAM on the neurons interact with NCAM on LBN110 cells thereby stimulating neurite outgrowth from the neurons. This system thus permits the study of NCAM-NCAM interactions and interactions between NCAM and other molecules.
(§3) For all experiments cells were grown in neurobasal medium with supplements as described above in a final volume of 300 μl/well in 8-well LabTek® Permanox Chamber slides or 500 μl/well in 4-well LabTek® Permanox Chamber slides.
For cocultures, L-cells were seeded in 8-well LabTek® Permanox Chamber slides at a density of 100.000 cells/well, except for transfection experiments where cells were seeded in 4-well LabTek® Permanox Chamber slides at a density of 200.000 cells/well. L-cells were grown for 24 hours in DMEM supplemented with 10% (v/v) FCS, 1% (v/v) glutamax, 100 U/ml penicillin, 100 μg/ml streptomycin, 2.5 μg/ml fungizone, and 567 μg/ml neomycin (G418), followed by washing twice in neurobasal medium with supplements before primary hippocampal neurons were seeded at a density of 7.000 cells/well in 8-well slides or 20.000 cells/well in 4-well slides.
(§4) To evaluate the effect peptides on neurite outgrowth, GDNF and the peptides, G1, G2, G3, A1, A2, A3, N1, N2 and N3 were diluted to the appropriate concentrations and added to the neurons approximately 10 minutes after seeding. Medium alone was added to controls, and cells were incubated for 24 hours.
(§5) Neurite outgrowth experiments were terminated after the stated time by fixating the cells. To visualize neurons and their neurites, immunostaining of GAP-43 was performed. This staining is specific for neurons. Transfected cells and their neurites should be visible without immunostaining due to the fluorescence emitted by GFP. […] GFP is a cytoplasmic protein, and since thin neurites only contain a small volume of cytoplasm, GFP is only found in small amounts in most neurites. Therefore, a double-staining protocol, where cells were immunostained against GFP and GAP-43, was adopted. This protocol allowed the identification of transfected cells on the basis of GFP-staining in combination with visualization of neurites based on GAP-43-staining.
Without prior removal of the medium 300 μl/well (8-well slides) or 500 μl/well (4-well slides) of a PBS solution containing 0.4 mM CaCl2, 0.05 M sucrose and 8% (v/v) formaldehyde was added to the cultures for 20 minutes. Cells were then washed 10 minutes in PBS followed by washing in PBS with 1% (w/v) BSA for 20 minutes, after which cells were incubated with primary antibodies overnight at 4° C.
Rabbit anti-rat GAP-43 antibodies were diluted 1:1000 for staining of untransfected cells and 1:2000 for staining of transfected cells. Mouse anti-GFP antibodies were diluted 1:1000. Antibodies were diluted in a PBS solution containing 7% (v/v) FCS to block unspecific binding, 50 mM glycine to block formaldehyde used for fixation, 0.2% (v/v) saponin to permeabilize cells, and 0.02% (v/v) NaN3 to preserve antibodies for later use.
The next day cells were washed 10 minutes in PBS followed by washing in PBS with 1% (w/v) BSA for 20 minutes. Cells were then incubated with secondary antibodies diluted in PBS with 1% (w/v) BSA for one hour at room temperature. Goat anti-rabbit IgG antibodies conjugated to Alexa 488 were diluted 1:1000 for untransfected cells and 1:2000 for transfected cells. Goat anti-mouse IgG antibodies conjugated to Alexa 546 were diluted 1:1000. Finally cells were washed 3×7 minutes in PBS and mounted with fluorescent mounting medium. […]

The test system of experiment [1] is primary hippocampal neurons. The experiment in a line: Neurite outgrowth assay, monocultures of primary hippocampal neurons. Type of experiment: cell-based, rat. The conditions noted are these: monoculture, stimulated 24 hours; GDNF 1-100 ng/ml, peptides 0.1-27 μg/ml; versus medium alone. On the procedure:
as §1, §2, §3
For monocultures, primary hippocampal neurons were seeded in 8-well LabTek® Permanox Chamber slides at a density of 10,000 cells/well.
as §4
as §5, with “GAP-43-staining. […]” for “GAP-43-staining.”

Regarding “ETTYDKILKNLSRNR (listed as Homo sapiens) [G2, GDNF fragment]”, the “binding to the GFRα1 receptor (SPR)” value in the experiment with GFRα1 receptor is given as “binding”. Further, the “neurite outgrowth, overall effect of treatment, neurons grown on NCAM-expressing fibroblasts” value in the experiment with hippocampal neurons (co-culture on NCAM-expressing fibroblasts, GDNF 1-100 ng/ml, peptides 0.1-81 μg/ml) is recorded as “overall significant effect”. In the experiment on hippocampal neurons (co-culture on control fibroblasts, GDNF 1-100 ng/ml, peptides 0.1-81 μg/ml), the “neurite outgrowth, overall effect of treatment, neurons grown on control fibroblasts” value was “overall significant effect”. The “difference between neurite outgrowth on control fibroblasts and on NCAM-expressing fibroblasts across concentrations (one-way ANOVA)” value with hippocampal neurons (difference per concentration, expressed as percentage of control) is given as “mean differences are not all the same”. For the same sequence, the “neurite outgrowth, overall effect of treatment (one-way ANOVA)” value in experiment [1] is reported as “overall statistical significant effect”.
